The structures appear in SMILES notation. Where only a bound is given, the exact number is not on record here.

With `CCCc1c(OCCCOc2ccc3c(c2CCC)OC(C)(CCC(=O)OC)CC3)ccc(C(C)=O)c1O` (centres undefined), the melting point (in general, the temperature, or range, at which the solid turns liquid) fell in the range of 53 to 55 °C. Next, `CC(C)c1nn(-c2ccc(C(F)(F)F)cn2)cc1CCCCOc1ccc(CCC(=O)O)cc1`: 144 to 145 °C; `Nc1cc(S(=O)(=O)c2ccccc2)c([N+](=O)[O-])c2cccnc12`: 211 to 213 °C. Next, `Fc1ccc(Nc2nc(N/N=C/c3ccc4ccccc4c3)nc(N3CCOCC3)n2)cc1`: 225 to 226 °C. For `COC(=O)C(Cc1ccccc1)NC(=S)Nc1nc2ccccc2s1` (racemic) the value was 168 to 169 °C; for `CCCCOC(=O)NC(=O)C(C)(c1ccccc1)c1ccccc1`, 83 °C. For `CCOC(=O)N1C=CC(c2c(-c3cccs3)nc3ccc(N4CCN(C(=O)OC(C)(C)C)CC4)nn23)C=C1`, the melting point worked out at 155 °C. For `COc1cccc(C=NNc2ncc(COc3cccc(C(=O)Nc4ccc(C(C)C)c(C)c4)c3)c3ccccc23)c1` the value was 125 to 129 °C. Next, `Cc1cccc(-c2[nH]c(C(C)C)nc2-c2cccc(-c3cccc(S(N)(=O)=O)c3)c2)n1`: 123 to 126 °C; `CC1c2ccccc2-c2cc(Br)ccc2N1S(=O)(=O)c1ccc(O)cc1` (centres undefined): 201 to 203 °C. Next, `CCCCS(=O)(=O)NC(=O)C[C@H]1O[C@H](c2cccc(OC)c2OC)c2cc(Cl)ccc2N(CC(C)(C)CO)C1=O`: 123 to 125 °C; `C[C@H]1C(=O)C[C@@H]2C[C@H]1OO[C@@]2(C)C=O`: 92 °C. Turning to `CN1CC[C@@H]2CC(=O)c3cc(F)c(F)cc3[C@@H]2C1` (relative stereo), the melting point was over 250 °C. Next, `O=C(c1ccccc1)N1CCc2cc(CCl)ccc21`: 108 to 110 °C; `CNC(=O)Cc1c(-c2ccc(C)cc2)nn2cccnc12`: 207 to 208 °C. Next, `CNC(=O)Oc1cc(C)c(NC(=O)COC)c(C)c1`: 180 to 182 °C; `Cc1ccccc1C(C)Oc1cc(OCc2ccccc2)ccc1C(=O)O` (centres undefined): 110 to 113 °C.

Regarding `CCCCC(=O)Nc1ccc(N)cc1`, the melting point lay in the range of 81 to 83 °C. The molecule `COc1ccc(C2CC(=O)N(C(=O)Nc3ccc(F)cc3)N2C)cc1OC1CCCC1` (centres undefined) came in with a melting point of 123 to 124 °C. Next, `O=C1CN(NC(=O)Sc2ccccc2)C(=O)N1`: 152 to 155 °C. For `CC1C(=O)Nc2ccc(Cl)cc2N1C1CC1` (racemic) the value was 167 °C; for `Cn1cc(-c2cnccn2)cc(Br)c1=O`, 196 to 197 °C. For `COc1cc(C=C(C#N)C(=O)Nc2cccc(Cl)c2)cc(F)c1O` the value was 235 °C; for `COC(=O)c1ccc2cc(-c3ccc(OCCCO)c(C45CC6CC(CC(C6)C4)C5)c3)ccc2c1`, 202 °C; for `COC(=O)N[C@@H]1Cc2ccccc2N(OC)C1=O`, 117 to 119 °C. In turn, `COc1ccccc1N1CCN(CCNC(=O)c2cccc(OC)c2OC)CC1` showed a melting point of 133 to 134 °C.

`COc1nc2c(c(OC)n1)C(c1ccc(F)c(OC)c1)C1=C(COC1=O)N2` (centres undefined) had a melting point of 267 to 270 °C. For `Oc1ccccc1C=Cc1cccc2[nH]ccc12` the value was 140 °C. For `CCCOc1nsc(N)c1C#N` the value was 122 to 125 °C; for `Fc1ccc2nc(Cl)ccc2c1`, 99 to 101 °C; for `Cc1nc2c(Cl)c(NC(=O)c3cc(Cl)ccc3Cl)ccc2s1`, 175 °C.

Turning to `CCCc1ccc2nc(Cl)c(S(=O)(=O)Cl)n2n1`, the melting point is 94.2 to 95.5 °C. Next, `c1ccc(Nc2nc(-c3ccco3)nc3ccccc23)cc1`: 183 to 184 °C; `COc1cccc(C(=O)N(C)Cc2cccc(-c3ccc(CC4SC(=O)NC4=O)cc3)c2)c1` (centres undefined): 173 °C; `CCCCc1nnc(SCc2ccc(OC)cc2)n1Cc1ccc(O)cc1`: 130 to 131 °C.

`O=C(Nc1ccccc1N1CCc2cc(Cl)ccc21)c1ccccc1` gave a melting point of 44 to 46 °C. Next, `CN1CC(C)(C)Oc2c(C(=O)NC3CN4CCC3CC4)cccc21` (centres undefined): 114 to 116 °C; `CC(C)c1ccc(N(Cc2ccc(N(C)C)cc2)C(=O)C2CCCc3ccc(C(C)C)cc32)cc1` (centres undefined): 123 to 125 °C; `COc1cccc(C=C2NC(=O)N(C)C2=O)c1`: 203 to 205 °C. `CN(C)N(CCC(N)=O)C(N)=O` came in with a melting point of 173 to 174 °C. `Cc1ccc(CNC(=O)c2nc(N3CCOCC3)n(C)c(=O)c2O)cc1C`: the melting point was 164 to 166 °C. For `O=[N+]([O-])c1ccc(CP2(=O)OCCCCO2)cc1` the value was 136 to 137 °C. For `CC(C)CC(N)C(=O)NC(=O)N(CCCl)N=O` (racemic) the value was 82 to 84 °C; for `OC(CC1CCNCC1)(c1ccc(F)cc1)c1ccc(F)cc1`, 169 to 171 °C.

`CC(C)c1ncc(CCCOc2nn(Cc3ccccc3)cc2CC(=O)O)c(Oc2ccc(Cl)cc2Cl)n1` displayed a melting point of 98 to 99 °C.

Molecule `CCN(CC)CCOc1ccc(N(C(=O)Nc2ccccc2)C2=NN(c3ccccc3)CC2)cc1` showed a melting point of 140 to 141 °C. For the molecule `Cc1ccc(C(=O)c2ccc(O)c(CC(=O)O)c2)cc1`, the melting point was 218 °C. Next, `Cc1c(S(=O)(=O)c2ccc(=O)[nH]n2)oc2ccc(Cl)cc12`: 247 to 248 °C. Next, `O=C(O)C1(C(=O)O)CC2CCC2C1` (centres undefined): 161 to 170 °C.

The molecule `Nc1ccc(S(=O)(=O)c2cc(-c3ccc(F)cc3)nc(N3CCCC3)c2)cc1` registered a melting point of 245 to 246 °C.

`C=C(F)c1cc(O)cc2nc(-c3ccc(O)c(F)c3)oc12` yielded a melting point of 213 to 214 °C. Regarding `COC(=O)C1=C(C)NC(c2c(F)cccc2F)=NC1c1ccc(F)cc1Cl` (centres undefined), the melting point lay within 126 to 128 °C. The molecule `CCCCCC(=O)c1ncc(S(N)(=O)=O)s1` gave a melting point of 124 to 125 °C.

As to `O=C(O)c1ccc(-c2nc(-c3ccccc3C(F)(F)F)co2)cc1`, the melting point was in the range of 264 to 265 °C. Next, `COc1ccc(-c2ccc(Cl)cc2)cc1COCCc1cccc(NS(=O)(=O)C(F)(F)F)c1`: 99 to 101 °C. Molecule `N#Cc1cccc2c1CCc1cc(C(F)(F)F)ccc1S2` came in with a melting point of 113 to 114 °C.

In turn, `COc1ccc(-c2ccc3nc(NC(=O)c4ccc(C(C)(C)C)cc4)cn3c2)cn1` registered a melting point of 245 to 247 °C.

Molecule `C=CC(=O)OCCOc1ccc(-c2cccc(F)c2F)cc1` came in with a melting point of 47.4 to 50.1 °C.

`CCC(CC)Oc1cc(C)nc(Oc2c(C)cc(C)cc2C)c1N` displayed a melting point of 96 to 98 °C. `O=c1nc(-c2ccccn2)sc2ccc(F)cc12` returned a melting point of 240 °C.

The molecule `N#Cc1cc2c(cc1F)S(=O)(=O)N=CN2C1CC1` gave a melting point of 205 to 207 °C.

The molecule `CCSCC(=O)Nc1c(C)cccc1C` returned a melting point of 96 to 98 °C. Next, `O=C1c2cc(OCc3ccccc3)ccc2OCC1Oc1cccnc1` (centres undefined): 133 to 134 °C; `CC(=O)C1=C(O)C(=C(C)Nc2ccc(OC(=O)NCc3ccccc3)cc2)C(=O)OC1=O`: 195 to 197 °C.

The values above are taken from a melting point compilation (Tetko et al.; mined from patent text by program, amines drawn as free bases though some values may be those of a salt).
